We go through 4 molecules from patent US8759295B2, “Peptide-peptidase inhibitor conjugates and methods of using same” (Amylin Pharmaceuticals, LLC, priority 2006, dated 2014).

Structures are written as SMILES. Where two headings read alike, the source gives them in different places. Some results are limits rather than exact numbers.

One data set deals with T1, ACE from rabbit lung (Oryctolagus cuniculus, UniProt P12822).
T1 construct: ACE from rabbit lung, Sigma Chemical Co., St. Louis, Mo; purchased Sigma Chemical Co., St. Louis, Mo; host or cells: rabbit lung (tissue-derived enzyme)
T1 sequence (P12822 34-1310): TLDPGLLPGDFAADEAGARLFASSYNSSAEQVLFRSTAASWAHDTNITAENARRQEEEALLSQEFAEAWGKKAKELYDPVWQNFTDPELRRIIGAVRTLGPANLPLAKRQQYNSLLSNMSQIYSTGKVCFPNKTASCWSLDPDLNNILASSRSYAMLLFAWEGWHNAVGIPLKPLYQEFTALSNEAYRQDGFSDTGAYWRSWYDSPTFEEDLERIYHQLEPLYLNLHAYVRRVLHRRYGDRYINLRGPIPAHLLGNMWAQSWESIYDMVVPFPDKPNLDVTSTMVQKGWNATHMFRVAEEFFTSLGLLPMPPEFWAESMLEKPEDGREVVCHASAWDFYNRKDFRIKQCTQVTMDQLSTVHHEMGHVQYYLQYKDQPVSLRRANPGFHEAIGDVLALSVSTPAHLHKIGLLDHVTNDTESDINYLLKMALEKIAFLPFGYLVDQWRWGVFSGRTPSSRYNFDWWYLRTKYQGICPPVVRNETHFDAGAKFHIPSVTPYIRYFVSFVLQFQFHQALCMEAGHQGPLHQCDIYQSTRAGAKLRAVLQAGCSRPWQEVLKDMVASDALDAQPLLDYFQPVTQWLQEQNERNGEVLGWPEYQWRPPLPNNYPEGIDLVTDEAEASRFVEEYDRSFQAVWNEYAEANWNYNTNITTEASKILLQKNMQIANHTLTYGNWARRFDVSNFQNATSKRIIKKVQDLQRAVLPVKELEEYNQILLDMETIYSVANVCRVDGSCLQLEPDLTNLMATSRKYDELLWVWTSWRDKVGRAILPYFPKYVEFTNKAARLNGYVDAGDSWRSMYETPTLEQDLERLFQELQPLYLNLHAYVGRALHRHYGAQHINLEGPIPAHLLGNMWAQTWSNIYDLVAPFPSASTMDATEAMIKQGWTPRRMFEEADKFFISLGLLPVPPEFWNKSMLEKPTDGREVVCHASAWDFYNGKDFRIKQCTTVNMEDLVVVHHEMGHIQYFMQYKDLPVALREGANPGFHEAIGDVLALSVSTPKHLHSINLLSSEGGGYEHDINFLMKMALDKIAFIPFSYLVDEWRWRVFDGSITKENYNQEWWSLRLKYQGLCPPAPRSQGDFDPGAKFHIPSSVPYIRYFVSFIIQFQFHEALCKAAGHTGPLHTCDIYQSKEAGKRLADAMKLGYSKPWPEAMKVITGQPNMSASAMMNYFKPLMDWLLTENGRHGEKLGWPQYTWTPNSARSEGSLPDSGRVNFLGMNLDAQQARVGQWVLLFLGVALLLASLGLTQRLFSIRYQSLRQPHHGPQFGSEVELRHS
As to the kind of experiment: ACE inhibition assay. Type of data set: biochemical. The method, then:
Peptide-ACE peptidase inhibitor conjugate compounds were assessed in an ACE inhibition assay using purified ACE enzyme and chromogenic substrates. An ACE stock solution was prepared by dissolving 0.1 unit of enzyme (ACE from rabbit lung, Sigma Chemical Co., St. Louis, Mo.) in 0.640 mL of HEPES buffer (0.1 M, pH=8). A 2 mM stock solution of substrate (N-benzyloxycarbonyl-Phe-His-Leu-OH) dissolved in methanol. The ACE inhibitor compounds were dissolved in phosphate buffer (0.1 M, pH=8) at concentrations of 0.0, 1, 10, 20, 60 and 100 μM. For the inhibition assay, six 2 mL microcentrifuge tubes were prepared containing 1.45 mL of phosphate buffer pH=8, 0.05 mL of 10% NaCl and 0.015 mL of substrate solution. To each microcentrifuge tube was added 0.015 mL of one of the ACE inhibitor compound's stock solutions. The solutions were heated at 37° C. for about 5 minutes. […] Initial rates were determined from linear portions of product release curves. […] Apparent binding constants (Kd^app or Ki^app) of inhibitors to ACE were determined by fitting inhibition curves (initial rate vs. inhibitor concentration) to equation:
[formula] where v0 is reaction rate in the absence of inhibitor and [I]—inhibitor concentration. Fits were done by least-squares method using KaleidaGraph 3.6 (Synergy Software, Reading Pa.).

The target of data set [1] is T2, Recombinant DPP-IV (Homo sapiens, UniProt P27487). Nature of the data set: DPP-IV resistance assay by mass spectrometry. The method, then:
The peptides were then desalted and concentrated on a C18 peptide micro trap (Michrom Bioresources, Inc., Auburn, Calif.) prior to introduction to a LTQ FT™ mass spectrometer (Thermo-Electron Corp., Waltham, Mass.) via an autosampler (Michrom Bioresources, Inc.). Peptides were eluted from a C5 packed 75 μm fused silica pico-frit column (New Objective, Inc., Woburn, Mass.) using a 5-60% acetonitrile/water gradient over 50 minutes at a flow rate of 500 nl/min. Extracted ion mass windows for the calculated m/z values of the most dominant charge states were used to search for both the parent compound and the theoretical hydrolyzed products within a given chromatogram. Exact mass was confirmed for each charge state by FT. The percentage of hydrolysis catalyzed by DPP-IV was estimated by dividing the area of product ions by the area of the total (parent+product) ions.
The estimated cleavage product conversion is based on the ratio of the ion extract area (indicated on top of the peaks) for [product ion]^5+ over that for total ions ([Mother Ion]^5++[product ion]^5+). The m/z ratios used to search for the expected ions are listed on the right side of the plots.

In data set [2] the target is T2, Recombinant DPP-IV. The arrangement: purchased Chemicon International, Inc., Temecula, Calif. As to conditions: Leiting et al. (2003); read-out: DPP-IV IC50, published value; cited from earlier work.

T2 sequence (P27487 whole entry, species assumed, the tested form may be a part): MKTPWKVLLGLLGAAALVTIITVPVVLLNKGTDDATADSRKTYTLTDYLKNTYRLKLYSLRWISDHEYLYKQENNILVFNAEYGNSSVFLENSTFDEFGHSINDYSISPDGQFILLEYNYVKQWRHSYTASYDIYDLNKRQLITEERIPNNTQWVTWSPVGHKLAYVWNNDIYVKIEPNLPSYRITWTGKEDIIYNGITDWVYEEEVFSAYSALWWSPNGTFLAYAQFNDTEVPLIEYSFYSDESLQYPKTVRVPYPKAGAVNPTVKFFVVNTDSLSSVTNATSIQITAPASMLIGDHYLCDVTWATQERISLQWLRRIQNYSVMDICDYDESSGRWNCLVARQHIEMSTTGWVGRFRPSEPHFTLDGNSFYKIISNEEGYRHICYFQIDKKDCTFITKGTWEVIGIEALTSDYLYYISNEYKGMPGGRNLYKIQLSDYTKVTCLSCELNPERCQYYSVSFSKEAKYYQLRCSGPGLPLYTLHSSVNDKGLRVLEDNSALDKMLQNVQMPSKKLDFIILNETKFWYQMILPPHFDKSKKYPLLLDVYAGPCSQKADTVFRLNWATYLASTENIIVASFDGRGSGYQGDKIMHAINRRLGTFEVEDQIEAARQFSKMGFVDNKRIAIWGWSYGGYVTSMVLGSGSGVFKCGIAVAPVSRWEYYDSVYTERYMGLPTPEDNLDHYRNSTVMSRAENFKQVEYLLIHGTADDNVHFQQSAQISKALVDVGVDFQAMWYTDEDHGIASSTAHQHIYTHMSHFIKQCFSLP

A word on the IC50: it is the concentration that gives 50% inhibition. In the case of `CC[C@H](C)[C@H](NC(=O)[C@H](Cc1ccccc1)NC(=O)[C@H](CCC(=O)O)NC(=O)[C@H](CCCCN)NC(=O)[C@H](C)NC(=O)[C@H](C)NC(=O)[C@H](CCC(N)=O)NC(=O)CNC(=O)[C@H](CCC(=O)O)NC(=O)[C@H](CC(C)C)NC(=O)[C@H](Cc1ccc(O)cc1)NC(=O)[C@H](CO)NC(=O)[C@H](CO)NC(=O)[C@@H](NC(=O)[C@H](CC(=O)O)NC(=O)[C@H](CO)NC(=O)[C@@H](NC(=O)[C@H](Cc1ccccc1)NC(=O)[C@@H](NC(=O)CNC(=O)[C@H](CCC(=O)O)NC(=O)[C@H](C)NC(=O)[C@@H](N)Cc1c[nH]cn1)[C@@H](C)O)[C@@H](C)O)C(C)C)C(=O)N[C@@H](C)C(=O)N[C@@H](Cc1c[nH]c2ccccc12)C(=O)N[C@@H](CC(C)C)C(=O)N[C@H](C(=O)N[C@@H](CCCCN)C(=O)NCC(=O)N[C@@H](CCCNC(=N)N)C(=O)NCC(=O)NCCCC(=O)NCCCC[C@H](NC(=O)[C@@H]1CCC(=O)N1)C(=O)N[C@@H](Cc1c[nH]c2ccccc12)C(=O)N[C@@H](C)C(=O)N1CCC[C@H]1C(=O)O)C(C)C` [3633/38, GLP-1-(7-37)-γ-Abu-N^ε2Lys-(Pyr)-WAP-OH], at ACE from rabbit lung, the concentration for half-maximal inhibition (IC50) was > 10 µM.

Consider `CC[C@H](C)[C@H](NC(=O)[C@H](Cc1ccccc1)NC(=O)[C@H](CCC(=O)O)NC(=O)[C@H](CCCCN)NC(=O)[C@H](C)NC(=O)[C@H](C)NC(=O)[C@H](CCC(N)=O)NC(=O)CNC(=O)[C@H](CCC(=O)O)NC(=O)[C@H](CC(C)C)NC(=O)[C@H](Cc1ccc(O)cc1)NC(=O)[C@H](CO)NC(=O)[C@H](CO)NC(=O)[C@@H](NC(=O)[C@H](CC(=O)O)NC(=O)[C@H](CO)NC(=O)[C@@H](NC(=O)[C@H](Cc1ccccc1)NC(=O)[C@@H](NC(=O)CNC(=O)[C@H](CCC(=O)O)NC(=O)[C@H](C)NC(=O)[C@@H](N)Cc1c[nH]cn1)[C@@H](C)O)[C@@H](C)O)C(C)C)C(=O)N[C@@H](C)C(=O)N[C@@H](Cc1c[nH]c2ccccc12)C(=O)N[C@@H](CC(C)C)C(=O)N[C@H](C(=O)N[C@@H](CCCCN)C(=O)NCC(=O)N[C@@H](CCCNC(=N)N)C(=O)NCC(=O)NCC(=O)NCC(=O)NCCCC[C@H](N)C(=O)N1CCSC1)C(C)C` [Compound 4844, GLP-1-(7-37)-GG-(S)-2,6-diamino-1-(thiazolidin-3-yl)hexan-1-one amide], for which the “DPP-IV catalyzed cleavage product ions” value in the data set with Recombinant DPP-IV [1] (incubation with DPP-IV) is reported as “expected product ions were not observed”.

With `CC[C@H](C)[C@H](NC(=O)[C@H](Cc1ccccc1)NC(=O)[C@H](CCC(=O)O)NC(=O)[C@H](CCCCN)NC(=O)[C@H](C)NC(=O)[C@H](C)NC(=O)[C@H](CCC(N)=O)NC(=O)CNC(=O)[C@H](CCC(=O)O)NC(=O)[C@H](CC(C)C)NC(=O)[C@H](Cc1ccc(O)cc1)NC(=O)[C@H](CO)NC(=O)[C@H](CO)NC(=O)[C@@H](NC(=O)[C@H](CC(=O)O)NC(=O)[C@H](CO)NC(=O)[C@@H](NC(=O)[C@H](Cc1ccccc1)NC(=O)[C@@H](NC(=O)CNC(=O)[C@H](CCC(=O)O)NC(=O)[C@H](C)NC(=O)[C@@H](N)Cc1c[nH]cn1)[C@@H](C)O)[C@@H](C)O)C(C)C)C(=O)N[C@@H](C)C(=O)N[C@@H](Cc1c[nH]c2ccccc12)C(=O)N[C@@H](CC(C)C)C(=O)N[C@H](C(=O)N[C@@H](CCCCN)C(=O)NCC(=O)N[C@@H](CCCNC(=N)N)C(=O)NCC(=O)NCC(=O)NCC(=O)NCCCC[C@H](N)C(=O)N1CCSC1C#N)C(C)C` (stereo partly drawn) [Compound 4845, GLP-1-(7-37)-GG-(S)-2,6-diamino-1-(thiazolidin-2-cyano-3-yl)hexan-1-one amide], the “DPP-IV catalyzed cleavage product ions” value with Recombinant DPP-IV [1] is on record as “expected product ions were not observed”.

Regarding `CCC(C)C(N)C(=O)N1CCCC1C(=O)NC(C(=O)O)C(C)CC` (stereo not drawn) [Diprotin A, Ile-Pro-Ile], at Recombinant DPP-IV [2], the IC50 was 3.5 µM.
